Here are results for nine molecules from patent publication US20210061859A1, “NTCP Inhibitor” (The University of Tokyo, priority 2018, published 2021).

The test system of one assay is HBV genotype D. It counts as cell-based, hepatitis B virus. The following applies: primary human hepatocytes, peptide at 100 μM, 12 days after inoculation. Here is the method: FIG. 2 is a diagram showing the anti-HBV effect of a peptide from initial screening. FIG. 2(a) is a schematic diagram of a HepG2-hNTCP-C4 infection experiment. HepG2-hNTCP-C4 cells were pretreated with a peptide for 2 hours and subsequently inoculated with HBV for 16 hours in the presence of the peptide. Free HBV and peptide were washed off. Then, the cells were further cultured for 12 days in the absence of the peptide, and HBV infection was evaluated on the basis of measurement of HBs antigen in the culture supernatant. The filled boxes and the broken-line boxes depict periods for which the treatment was performed and periods for which the treatment was not performed, respectively. […] HBV infection was evaluated by monitoring HBs antigen secreted into a culture supernatant on 12 days after inoculation by ELISA. In FIG. 2(c), a cell survival rate was measured by MTT assay.
FIG. 3 is a diagram showing the anti-HBV effect of a peptide by focused library screening. […] HBV infection was evaluated by measurement of HBe antigen (a), and a cell survival rate (b) was evaluated by MTT assay as shown in FIG. 2.
HBV genotype D used in this study (FIGS. 1 to 3) was derived from the culture supernatant of Hep38.7-Tet cells, and prepared by a known method (the method described in Tsukuda, S. et al. Dysregulation of retinoic acid receptor diminishes hepatocyte permissiveness to hepatitis B virus infection through modulation of sodium taurocholate cotransporting polypeptide (NTCP) expression. The Journal of biological chemistry 290, 5673-5684 (2015), and Ogura, N., Watashi, K., Noguchi, T. & Wakita, T. Formation of covalently closed circular DNA in Hep38.7-Tet cells, a tetracycline inducible hepatitis B virus expression cell line. Biochemical and biophysical research communications 452, 315-321 (2014)). Purified HBV (FIG. 1(d)) was prepared by ultrafiltration to remove an excess of components in FBS and medium. HBV genotypes A, B, and C and genotype C having the L180M/S202G/M204V mutations (nucleoside analog-resistant HBV) or G145R substitution (vaccine-escape HBV) (FIG. 4(d)) were prepared from the culture supernatant of HepG2 cells transfected with the corresponding expression plasmid. HBV was inoculated at 12,000 (FIGS. 1(a), 1(b), and 1(d)), 1000 to 2000 (FIG. 2(b)) or 500 (FIGS. 3(a) and 4(d)) genome equivalents (GEq)/cell in the presence of 4% polyethylene glycol 8000 (PEG8000) and incubated at 37° C. for 16 hours by a known method (the method described in Watashi, K. et al. Interleukin-1 and tumor necrosis factor-alpha trigger restriction of hepatitis B virus infection via a cytidine deaminase activation-induced cytidine deaminase (AID). The Journal of biological chemistry 288, 31715-31727 (2013)).
HBe antigen was detected by a chemiluminescence immunoassay (CLIA) (LSI Medience Corp.). HBs antigen was quantified by enzyme-linked immunosorbent assay (ELISA) as described in a known method (the method described in Watashi, K. et al. Interleukin-1 and tumor necrosis factor-alpha trigger restriction of hepatitis B virus infection via a cytidine deaminase activation-induced cytidine deaminase (AID). The Journal of biological chemistry 288, 31715-31727 (2013)).
Subsequently, the present inventors evaluated the effect of the 10 peptides described above on HBV infection in primary human hepatocytes. […] HBV infection was evaluated by measuring HBs antigen in the culture supernatant. […]

In the next assay the target is T1, human NTCP (Homo sapiens, UniProt Q14973).
T1 construct: made in house; host or cells: wheat germ cell-free protein synthesis system
T1 sequence (Q14973 1-349): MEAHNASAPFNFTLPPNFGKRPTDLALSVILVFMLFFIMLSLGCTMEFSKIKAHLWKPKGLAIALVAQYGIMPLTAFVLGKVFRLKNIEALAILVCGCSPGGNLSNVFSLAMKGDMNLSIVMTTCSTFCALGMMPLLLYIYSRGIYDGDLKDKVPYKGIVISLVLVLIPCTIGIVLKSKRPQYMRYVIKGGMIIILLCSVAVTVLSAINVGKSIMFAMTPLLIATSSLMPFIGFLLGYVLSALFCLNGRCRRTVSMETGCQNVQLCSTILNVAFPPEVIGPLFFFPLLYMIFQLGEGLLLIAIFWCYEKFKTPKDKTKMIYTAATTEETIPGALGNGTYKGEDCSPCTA
Description: Surface plasmon resonance binding to immobilized recombinant NTCP. The following applies: Kd, single-cycle kinetics, 1:1 binding model, NTCP immobilized on NTA-Ni2+. As to the method:
FIG. 7 is a diagram showing the NTCP association constant of a peptide identified by first RaPID screening. A single-cycle reaction kinetics experiment was conducted using NTCP immobilized on surface (NTA-Ni^2+) involving varying concentrations of a cyclic peptide analyte. In each case, as shown in the drawing, the peptide was tested with 4-fold serial dilutions starting from the highest concentration of 200 or 1000 nM. A dissociation constant (KD) was determined using a 1:1 binding model.
FIG. 9 is a diagram showing the NTCP association constant of a peptide identified by focused library RaPID screening. A single-cycle association constant experiment was conducted using NTCP immobilized on surface (NTA-Ni^2+) involving varying concentrations of a cyclic peptide analyte. In each case, as shown in the drawing, the peptide was tested with 4-fold serial dilutions starting from the highest concentration of 200 or 1000 nM. A dissociation constant (KD) was determined using a 1:1 binding model.
The association constant of each peptide for human NTCP was measured using a Biacore T200 apparatus (GE Healthcare Japan Corp.). The running buffer solution used was HBS-P+ (10 mM HEPES, 150 mM NaCl, and 0.05 vol % surfactant P20, pH 7.4) containing 0.1 vol % DMSO and 1 mM β-dodecyl-maltoside. 100 nM recombinant NTCP was immobilized on a NTA chip treated with Ni^2+ according to the manufacturer's instructions (baseline response: 1000 to 3000 refraction units). Peptides were injected as analytes at a flow rate of 60 μL/min, and association constants were modelled using a 1:1 binding model.

For assay [1], the target named is T2, His-tagged recombinant NTCP protein (human sodium taurocholate cotransporting polypeptide) (human), Q14973.
T2 chain: T1 sequence (Q14973 1-349)
Nature of the assay: SPR (Biacore T200), single-cycle kinetics, His-NTCP on Ni2+-NTA chip, peptide as analyte, 1:1 model.

Assay [2] deals with T3, human NTCP on cells (HepG2-hNTCP-C4 cells overexpressing the human NTCP gene; primary human hepatocytes) (human), Q14973.
T3 chain: T1 sequence (Q14973 1-349)
Description: cell-based or functional assay.

Where a SMILES comes first, the peptide text is derived from it. Bridges are numbered along the chain shown (N, C = ends). [ ]: non-standard residue; d: D form. NMeA = CN[C@@H](C)C(=O)O; Sar = CNCC(=O)O

Regarding `CC[C@H](C)[C@@H]1NC(=O)[C@@H](Cc2ccc(O)cc2)NC(=O)CSC[C@@H](C(=O)NCC(N)=O)NC(=O)[C@H](CO)NC(=O)[C@H](Cc2ccc(O)cc2)NC(=O)[C@H](CC(C)C)NC(=O)[C@H](CC(C)C)NC(=O)[C@H](Cc2ccccc2)NC(=O)[C@H](CC(C)C)NC(=O)[C@H](Cc2c[nH]cn2)NC(=O)[C@H](CC(C)C)NC(=O)[C@H](CCC(=O)O)NC(=O)[C@@H]2CCCN2C(=O)[C@H](Cc2ccc(O)cc2)NC(=O)[C@H](C(C)C)NC(=O)[C@H](CC(C)C)NC1=O` [D4] ({CH2CO}-[dY]ILVYPELHLFLLYSCG-NH2; thioether N-16), in the assay on HBV genotype D, the “HBs antigen in the culture supernatant” value is “most active”. In addition, the Kd on human NTCP was 2270 nM.
As for `CC[C@H](C)[C@@H]1NC(=O)[C@H](C)NC(=O)[C@H](Cc2c[nH]c3ccccc23)NC(=O)[C@H](Cc2c[nH]c3ccccc23)NC(=O)[C@@H](Cc2ccc(O)cc2)NC(=O)CSC[C@@H](C(=O)NCC(N)=O)NC(=O)[C@@H]2CCCN2C(=O)[C@H](Cc2c[nH]c3ccccc23)NC(=O)[C@H]([C@@H](C)O)NC(=O)[C@H](Cc2ccccc2)NC(=O)[C@H](C(C)C)NC(=O)[C@H](Cc2c[nH]cn2)NC(=O)[C@H]([C@@H](C)CC)NC(=O)[C@H](Cc2c[nH]cn2)NC(=O)[C@@H]2CCCN2C(=O)[C@H](CC(N)=O)NC1=O` [D2] ({CH2CO}-[dY]WWAINPHIHVFTWPCG-NH2; thioether N-16), the “HBs antigen in the culture supernatant” value in the assay with HBV genotype D was “most active”. On human NTCP, the Kd turned out to be 14 nM.
As to `CC[C@H](C)[C@@H]1NC(=O)CN(C)C(=O)[C@H](CO)NC(=O)[C@H](Cc2ccc(O)cc2)NC(=O)[C@H](CCCCN)NC(=O)[C@H](Cc2ccc(O)cc2)NC(=O)[C@H]([C@@H](C)O)NC(=O)[C@H](Cc2ccc(O)cc2)NC(=O)CSC[C@@H](C(=O)N[C@H](C(N)=O)[C@@H](C)O)NC(=O)[C@H](Cc2c[nH]c3ccccc23)NC(=O)[C@H]([C@@H](C)CC)NC(=O)[C@H](Cc2c[nH]c3ccccc23)NC(=O)[C@H]([C@@H](C)CC)NC(=O)[C@H](Cc2c[nH]c3ccccc23)NC1=O` [WL1] ({CH2CO}-YTYKYS[Sar]IWIWIWCT-NH2; thioether N-14), the Kd at human NTCP is 360 nM.
Same read-out and setting: for `CC[C@H](C)[C@@H]1NC(=O)[C@H](Cc2c[nH]c3ccccc23)NC(=O)[C@H]([C@@H](C)CC)NC(=O)[C@H](CCC(N)=O)NC(=O)[C@H](C)N(C)C(=O)[C@H](Cc2ccc(O)cc2)NC(=O)[C@H]([C@@H](C)O)NC(=O)[C@H](Cc2ccccc2)NC(=O)[C@H]([C@@H](C)O)NC(=O)[C@@H](Cc2ccc(O)cc2)NC(=O)CSC[C@@H](C(=O)N[C@H](C(N)=O)[C@@H](C)O)NC(=O)CN(C)C(=O)[C@H](Cc2ccc(O)cc2)NC(=O)[C@H](Cc2ccc(O)cc2)NC(=O)[C@H](Cc2c[nH]c3ccccc23)NC1=O` [WD4] ({CH2CO}-[dY]TFTY[NMeA]QIWIWYY[Sar]CT-NH2; thioether N-15) the value was 11 nM; for `CC[C@H](C)[C@@H]1NC(=O)[C@H](Cc2ccc(O)cc2)NC(=O)[C@H](Cc2ccc(O)cc2)NC(=O)[C@H](Cc2c[nH]cn2)NC(=O)[C@H](Cc2c[nH]cn2)NC(=O)[C@H]([C@@H](C)O)NC(=O)[C@H](CC(N)=O)NC(=O)[C@H](Cc2c[nH]c3ccccc23)NC(=O)[C@H]([C@@H](C)O)NC(=O)[C@H](Cc2ccc(O)cc2)NC(=O)CSC[C@@H](C(=O)NCC(N)=O)NC(=O)[C@H](CC(N)=O)NC(=O)[C@H](CC(C)C)NC(=O)[C@H](Cc2c[nH]c3ccccc23)NC1=O` [L5] ({CH2CO}-YTWNTHHYYIWLNCG-NH2; thioether N-14), 4 nM; for `CC[C@H](C)[C@@H]1NC(=O)[C@H](Cc2c[nH]c3ccccc23)NC(=O)[C@H]([C@@H](C)CC)NC(=O)[C@H](Cc2ccccc2)NC(=O)[C@H](CO)NC(=O)[C@H](CC(N)=O)NC(=O)[C@H](CCC(N)=O)NC(=O)[C@H](Cc2c[nH]c3ccccc23)NC(=O)[C@H]([C@@H](C)O)NC(=O)[C@H](Cc2c[nH]c3ccccc23)NC(=O)[C@H]([C@@H](C)O)NC(=O)[C@H](Cc2ccc(O)cc2)NC(=O)CSC[C@@H](C(=O)N[C@H](C(N)=O)[C@@H](C)O)NC(=O)[C@H](Cc2ccc(O)cc2)NC1=O` [WL5] ({CH2CO}-YTWTWQNSFIWIYCT-NH2; thioether N-14), 10 nM.

B1: WL4 (peptide)
peptide: YVIWIWPNHFYYCT
modifications: not checked
Turning to B1, the Kd in assay [1] was determined as 42 nM. This molecule displayed a 50% inhibitory concentration (IC50), HBs antigen in culture supernatant, HBV infection assay in assay [2] of 660 nM.

B2: WD1 (peptide)
peptide: YFIIVGTWTWTWSCT
modifications: not checked
Consider B2, for which, in assay [1], the Kd turned out to be 15 nM. Also, the 50% inhibitory concentration (IC50), HBs antigen in culture supernatant, HBV infection assay in assay [2] was found to be 850 nM.

B3: WL2 (peptide)
peptide: YIWIWPGYVIYCT
modifications: not checked
For B3, in assay [1], the Kd was found to be 157 nM. Besides, in assay [2], the 50% inhibitory concentration (IC50), HBs antigen in culture supernatant, HBV infection assay is 2540 nM.
